# Assay results from patent publication US7893092B2, “Anthranilamide derivatives as insecticides” (Syngenta Crop Protection, Inc., priority 2004, dated 2011).
# Read-outs that look alike come from different tables or passages of the source.
# How the values were obtained:
# [1] = test system: Diabrotica balteata; assay: Activity against Diabrotica balteata (Example B2); format: in vivo; settings: 144 h, maize seedlings sprayed, 400 ppm active ingredient, 2nd instar larvae, 6 days, read-out: percentage reduction in the population (% activity)
# Method: Maize seedlings are sprayed with an aqueous emulsion spray mixture comprising 400 ppm of active ingredient and, after the spray coating has dried on, populated with 10 larvae (2nd instar) of Diabrotica balteata and introduced into a plastic container. 6 days later, the percentage reduction in the population (% activity) is determined by comparing the number of dead larvae between the treated and untreated plants.
# [2] = test system: Myzus persicae; assay: Activity against Myzus persicae, foliar application (Example B5); format: in vivo; settings: pea seedlings sprayed, 400 ppm active ingredient, 20°, 3 and 6 days, read-out: percentage reduction in the population (% activity)
# Method: Pea seedlings are infected with Myzus persicae, subsequently sprayed with a spray mixture comprising 400 ppm of active ingredient and then incubated at 20°. 3 and 6 days later, the percentage reduction in the population (% activity) is determined by comparing the number of dead aphids between the treated and untreated plants.
# [3] = test system: Heliothis virescens; assay: Activity against Heliothis virescens, foliar application (Example B3); format: in vivo; settings: 144 h, young soya plants sprayed, 400 ppm active ingredient, 1st instar caterpillars, 6 days, read-out: percentage reduction in the population and in the feeding damage (% activity)
# Method: Young soya plants are sprayed with an aqueous emulsion spray mixture comprising 400 ppm of active ingredient and, after the spray coating has dried on, populated with 10 caterpillars (1st instar) of Heliothis virescens and introduced into a plastic container. 6 days later, the percentage reduction in the population and in the feeding damage (% activity) are determined by comparing the number of dead caterpillars and the feeding damage between the treated and untreated plants.
# [4] = test system: Plutella xylostella; assay: Activity against Plutella xylostella (Example B7); format: in vivo; settings: 72 h, young cabbage plants sprayed, 400 ppm active ingredient, 3rd instar caterpillars, 3 days, read-out: percentage reduction in the population and in the feeding damage (% activity)
# Method: Young cabbage plants are sprayed with an aqueous emulsion spray mixture comprising 400 ppm of active ingredient and, after the spray coating has dried on, populated with 10 caterpillars (3rd instar) of Plutella xylostella and introduced into a plastic container. 3 days later, the percentage reduction in the population and in the feeding damage (% activity) are determined by comparing the number of dead caterpillars and the feeding damage between the treated and untreated plants.
# [5] = test system: Spodoptera littoralis; assay: Systemic insecticide test for Spodoptera littoralis (cotton leafworm) (Example B9); format: in vivo; settings: 96 h, read-out: percentage of dead (activity)
# Method: Four day old maize seedlings (Zea mays, variety Stoneville) are placed individual in vials containing 24 ml water into which the chemical is diluted at 12.5 ppm. Seedlings are allowed to grow for six days. Subsequently leaves are cut and placed in a Petri dish (5 cm diameter), inoculated with twelve to fifteen 1st instar S. littoralis larvae and incubated for four days in a growth chamber (25° C., 50% r.h., 18:6 L:D photo period). Number of alive insects are counted and percentage of dead calculated. Tests were conducted with one replicate. In this test, compounds listed in the Tables above show good activity. In particular compounds T1.1.17, T1.1.89, T41.1.1, T35.1.1, T40.1.1, T30.1.1, T44.1.1, T31.1.1, T31.1.2, T30.1.2, T1.1.17, T1.1.89, T16.1.1, T36.1.1, T16.1.1, T3.7.1, T18.1.1, T43.1.1, T42.1.1, T30.1.2, T30.1.1, T40.1.1, T41.1.1, T45.1.1, T35.1.1, T1.1.73, T18.1.1, T36.1.1, T1.1.1 and T1.1.73 have an activity of over 80%.
# [6] = test system: Spodoptera littoralis; assay: Activity against Spodoptera littoralis (Example B8); format: in vivo; settings: 72 h, young soya plants sprayed, 400 ppm active ingredient, 1st instar caterpillars, 3 days, read-out: percentage reduction in the population and in the feeding damage (% activity)
# Method: Young soya plants are sprayed with an aqueous emulsion spray mixture comprising 400 ppm of active ingredient and, after the spray coating has dried on, populated with 10 caterpillars (1st instar) of Spodoptera littoralis and introduced into a plastic container. 3 days later, the percentage reduction in the population and in the feeding damage (% activity) are determined by comparing the number of dead caterpillars and the feeding damage between the treated and untreated plants.
SMILES,melting point,inhibition at 400 ppm [1],inhibition at 400 ppm [2],inhibition at 400 ppm [3],inhibition at 400 ppm [4],pest or weed control at 12.5 ppm ([5]; in Zea mays),inhibition at 400 ppm [6],"pest or weed control at 12.5 ppm ([5]; maize seedlings in water with 12.5 ppm, 6 days growth, cut leaves, 1st instar larvae, 4 days, one replicate)"
Cc1cc(Cl)cc(C(=O)NC(CS(C)(=N)=O)C(C)C)c1NC(=O)c1cc(C(F)(F)F)nn1-c1ncccc1Cl (stereo not shown),248 to 250 °C,–,–,–,–,–,–,–
CCCCC(CS(C)(=N)=O)NC(=O)c1cc(Cl)cc(C)c1NC(=O)c1cc(C(F)(F)F)nn1-c1ncccc1Cl (stereo not shown),225 to 226 °C,–,–,–,–,–,–,–
COC(=O)C(CCS(C)(=N)=O)NC(=O)c1cc(Cl)cc(C)c1NC(=O)c1cc(C(F)(F)F)nn1-c1ncccc1Cl (stereo not shown),207 to 209 °C,–,–,–,–,–,–,–
Cc1cc(Cl)cc(C(=O)NCC(C)S(C)(=O)=NC(=O)C(F)(F)F)c1NC(=O)c1cc(C(F)(F)F)nn1-c1ncccc1Cl (stereo not shown),125 to 130 °C,–,–,–,–,–,–,–
Cc1cc(C#N)cc(C(=O)NC2(CS(C)(=O)=NC(=O)C(F)(F)F)CC2)c1NC(=O)c1cc(C(F)(F)F)nn1-c1ncccc1Cl (stereo not shown),187 to 189 °C,–,–,–,–,–,–,–
Cc1cc(Cl)cc(C(=O)NC(C)(C)CS(C)(=N)=O)c1NC(=O)c1cc(C(F)(F)F)nn1-c1ncccc1Cl (stereo not shown) [T1.1.1],–,> 80%,> 80%,> 80%,> 80%,> 80%,> 80%,–
Cc1cc(Cl)cc(C(=O)NC(C)(C)CS(C)(=N)=O)c1NC(=O)c1cc(OCC(F)(F)F)nn1-c1ncccc1Cl (stereo not shown) [T1.1.17],–,> 80%,–,–,> 80%,> 80%,> 80%,–
Cc1cc(C#N)cc(C(=O)NC(C)(C)CS(C)(=N)=O)c1NC(=O)c1cc(C(F)(F)F)nn1-c1ncccc1Cl (stereo not shown) [T1.1.73],–,> 80%,–,–,> 80%,> 80%,> 80%,–
Cc1cc(C#N)cc(C(=O)NC(C)(C)CS(C)(=N)=O)c1NC(=O)c1cc(OCC(F)(F)F)nn1-c1ncccc1Cl (stereo not shown) [T1.1.89],–,> 80%,–,–,> 80%,> 80%,> 80%,–
Cc1cc(Cl)cc(C(=O)NC(C)CS(C)(=N)=O)c1NC(=O)c1cc(C(F)(F)F)nn1-c1ncccc1Cl (stereo not shown) [T16.1.1],–,> 80%,–,> 80%,> 80%,> 80%,> 80%,–
Cc1cc(Cl)cc(C(=O)NC(C)CS(C)(=O)=NC(=O)C(F)(F)F)c1NC(=O)c1cc(C(F)(F)F)nn1-c1ncccc1Cl (stereo not shown) [T18.1.1],–,> 80%,–,–,> 80%,> 80%,> 80%,–
Cc1cc(Cl)cc(C(=O)NCCS(C)(=N)=O)c1NC(=O)c1cc(C(F)(F)F)nn1-c1ncccc1Cl (stereo not shown) [T30.1.1],–,–,–,–,> 80%,> 80%,> 80%,–
CCS(=N)(=O)CCNC(=O)c1cc(Cl)cc(C)c1NC(=O)c1cc(C(F)(F)F)nn1-c1ncccc1Cl (stereo not shown) [T30.1.2],–,–,–,–,> 80%,> 80%,> 80%,–
Cc1cc(Cl)cc(C(=O)NCCS(C)(=O)=NC(=O)C(F)(F)F)c1NC(=O)c1cc(C(F)(F)F)nn1-c1ncccc1Cl (stereo not shown) [T31.1.1],–,–,–,–,> 80%,> 80%,> 80%,–
CCS(=O)(CCNC(=O)c1cc(Cl)cc(C)c1NC(=O)c1cc(C(F)(F)F)nn1-c1ncccc1Cl)=NC(=O)C(F)(F)F (stereo not shown) [T31.1.2],–,–,–,–,> 80%,> 80%,> 80%,–
Cc1cc(Cl)cc(C(=O)NCc2ccccc2S(C)(=N)=O)c1NC(=O)c1cc(C(F)(F)F)nn1-c1ncccc1Cl (stereo not shown) [T34.1.1],235 to 238 °C,–,–,–,> 80%,–,> 80%,–
Cc1cc(Cl)cc(C(=O)NCc2ccccc2S(C)(=O)=NC(=O)C(F)(F)F)c1NC(=O)c1cc(C(F)(F)F)nn1-c1ncccc1Cl (stereo not shown) [T35.1.1],–,–,–,> 80%,> 80%,–,> 80%,> 80%
Cc1cc(Cl)cc(C(=O)NCC(C)S(C)(=N)=O)c1NC(=O)c1cc(C(F)(F)F)nn1-c1ncccc1Cl (stereo not shown) [T36.1.1],–,–,–,–,> 80%,> 80%,> 80%,–
CCC(CS(C)(=N)=O)NC(=O)c1cc(Cl)cc(C)c1NC(=O)c1cc(C(F)(F)F)nn1-c1ncccc1Cl (stereo not shown) [T38.1.1],180 to 185 °C,–,–,–,> 80%,–,–,–
CCC(CS(C)(=O)=NC(=O)C(F)(F)F)NC(=O)c1cc(Cl)cc(C)c1NC(=O)c1cc(C(F)(F)F)nn1-c1ncccc1Cl (stereo not shown) [T39.1.1],170 to 174 °C,–,–,–,> 80%,–,–,–
Cc1cc(Cl)cc(C(=O)NCCCCS(C)(=N)=O)c1NC(=O)c1cc(C(F)(F)F)nn1-c1ncccc1Cl (stereo not shown) [T40.1.1],–,–,–,–,> 80%,> 80%,> 80%,–
Cc1cc(Cl)cc(C(=O)NCCCCS(C)(=O)=NC(=O)C(F)(F)F)c1NC(=O)c1cc(C(F)(F)F)nn1-c1ncccc1Cl (stereo not shown) [T41.1.1],–,–,–,–,> 80%,> 80%,> 80%,–
Cc1cc(Cl)cc(C(=O)NCC(C)(C)CS(C)(=N)=O)c1NC(=O)c1cc(C(F)(F)F)nn1-c1ncccc1Cl (stereo not shown) [T42.1.1],–,–,–,–,> 80%,> 80%,> 80%,–
Cc1cc(Cl)cc(C(=O)NCC(C)(C)CS(C)(=O)=NC(=O)C(F)(F)F)c1NC(=O)c1cc(C(F)(F)F)nn1-c1ncccc1Cl (stereo not shown) [T43.1.1],–,–,–,–,> 80%,> 80%,> 80%,–
Cc1cc(Cl)cc(C(=O)NCCOCCS(C)(=N)=O)c1NC(=O)c1cc(C(F)(F)F)nn1-c1ncccc1Cl (stereo not shown) [T44.1.1],–,–,–,–,> 80%,> 80%,> 80%,–
Cc1cc(Cl)cc(C(=O)NCCOCCS(C)(=O)=NC(=O)C(F)(F)F)c1NC(=O)c1cc(C(F)(F)F)nn1-c1ncccc1Cl (stereo not shown) [T45.1.1],–,–,–,–,> 80%,> 80%,–,–
Cc1cc(Cl)cc(C(=O)NCCCCCCS(C)(=N)=O)c1NC(=O)c1cc(C(F)(F)F)nn1-c1ncccc1Cl (stereo not shown) [T46.1.1],148 to 152 °C,–,–,> 80%,> 80%,–,> 80%,–
Cc1cc(Cl)cc(C(=O)NCCCCCCS(C)(=O)=NC(=O)C(F)(F)F)c1NC(=O)c1cc(C(F)(F)F)nn1-c1ncccc1Cl (stereo not shown) [T47.1.1],110 to 113 °C,–,–,–,> 80%,–,> 80%,–
